{"source": "patent US10179355B2", "about": "“Bioremediation enhancing agents and methods of use” (JRW BIOREMEDIATION, LLC, priority 2007, dated 2019)", "format_in_all_cases": "cell-based, Dehalococcoides and Dehalobacter spp.", "key": {"[1]": {"test_system": "dechlorinating bacteria known to convert PCE to ethene", "test": "Set E: Relative Efficiency of Novel Bioremediation Amendments (electron donors), PCE dechlorination microcosms", "description": "(§1) Sets B, C, D, E, and G further contain figures and tables showing results of the characterization of the Efficiency and the Relative Efficiency of electron donor usage. Efficiency may be defined as the percent of electron donor utilized for dechlorination, and may be calculated by dividing the pmoles of Chloride ion generated by the pmoles of electron donor consumed as measured by either Volatile Fatty Acid (VFA) analysis (Sets B, C, and G) or Chemical Oxygen Demand (COD) analysis (Set D and E). The Relative Efficiency of the electron donor utilization may be defined as the Efficiency of the Electron Donor divided by the Efficiency of the Lactate Control.\n(§2) The following components were used in the system for bioremediating contaminated ground water microcosms in Examples 2-8: • 160 milliliter (ml) stoppered serum bottles • 100 ml of anaerobic culture medium, groundwater containing an excess of bioavailable phosphorus and nitrogen at 0.5 mM Phosphate and 1 mM ammonium degassed with a nitrogen sparge • Nominally 1 gram of limestone • 19.54 micromoles (pmoles) Perchloroethene (PCE) • An excess of various electron donors were utilized • 3 ml of inoculum containing dechlorinating bacteria known to convert PCE to ethene.\nThe fifth set tested a variety of different electron donors comparing Crude Glycerin, Sodium Citrate, Ethanol and Whey all charged at nominally 1,000 mg/L to lactate at 7 mM (784 mg/L).\nThe objective of the study was to test bioremediation amendments for efficacy as electron donors as well as to characterize their Efficiency for dechlorination as compared to the Lactate Control."}, "[2]": {"test_system": "dechlorinating bacteria known to convert PCE to ethene", "test": "Set F: Additional Novel Bioremediation Amendments, PCE dechlorination microcosms", "conditions": "44 days, nominally 1,000 mg/L", "experimental": "as §2\nSet F included microcosms that contained Sodium Gluconate and Sodium Erythorbate. They started at concentrations that were nominally 1,000 mg/L as compared with the sodium lactate control at 7 mM (784 mg/L).\nThe objective of this set was to characterize the ability of these two novel bioremediation electron donors to completely dechlorinate PCE and characterize the electron donor utilization efficiency as compared with sodium lactate."}, "[3]": {"test_system": "dechlorinating bacteria known to convert PCE to ethene", "test": "Set G: Efficiency by VFA Analysis", "description": "as §1\nThe method used to calculate the consumption of the electron donor measured the propionate, acetate and formate levels to calculate the consumption of electron donor over time. The lactate and propionate fermented very rapidly resulting in acetate and formate as the only measurable VFAs.\nSet G contained microcosms that tested two different Yeast Metabolites (YM3 and YM4) and a Polysaccharide (PS1) for kinetics and efficiency of electron donor utilization using lactate and molasses as the electron donors. PS1 was also tested as an electron donor by itself.\nLactate at 11.2 mM (1,000 mg/L) and nutrient amendment at 1% of the electron donor levels (˜10 mg/L). Triplicate bottles received 2 micro liters of PCE and 2 ml of inoculum. The bottles were sampled 5 times over a 138 day period."}, "[4]": {"test_system": "dechlorinating bacteria known to convert PCE to ethene", "test": "Set G: Additional Yeast Metabolites and Polysaccharides as Nutrients, PCE dechlorination microcosms (kinetics, Relative Rate, paired t-test)", "conditions": "bottles 1-3", "description": "Certain contaminated materials (or sites) may contain indigenous microbial communities that are sufficient for complete bioremediation of contaminants. For such sites, there is no need to add microbes unless the indigenous microbes are genetically deficient in achieving the desired clean-up goals. For those sites that are microbiologically limited, microorganisms may be added to the contaminated materials (or sites). In one embodiment, the inoculum may be a mixed culture of halo-respiring bacteria that have been enriched to reach an optimal cell density. These mixed cultures of halo-respiring bacteria may be typically obtained from sediment samples from rivers, streams or any waterways. More specifically, the inoculum used in the Examples was originated from a Sangamon River sediment sample (Lodge Park, Piatt County, Ill.) See, e.g., Brennan, R. A., Sanford, R. A. and Werth, C. J. (2006). “Biodegradation of Tetrachloroethene by Chitin Fermentation Products in a Continuous Flow Column System.” Journal of Environ. Engr., June 665-673. This culture had grown for several years on PCE, anaerobic basal salts medium, Wolfe's vitamin solution and various electron donors including lactate (1-2 millimolar (mM)), formate (4 mM) and chitin using the Volatile Interface Transfer Apparatus (VITA) reactor system at the University of Illinois. Brennan, R. A., and Sanford, R. A. (2002). “Continuous steady-state method using Tenax for delivering tetrachloroethene to chlororespiring bacteria.” Appl. Environ. Microbiol., 68(3), 1464-1467. […] Using 16S rRNA gene-specific primers, both Dehalococcoides and Dehalobacter spp. were detected. Quantitative real-time PCR has been used to determine that approximately 1.65×10^7 Dehalococcoides gene copies were present per ml of culture.\nFor purpose of this disclosure, each bottle may be started with a certain amount of PCE. At subsequent times each bottle may be sampled for the degradation daughter products of PCE, namely trichloroethene (TCE), cis-dichloroethene (DCE), vinyl chloride (VC) and ethene, etc. Trans-DCE and 1,1-DCE are also daughter products of PCE, but they may not be detectable under the conditions disclosed here.\nThe rate of degradation may be determined by calculating the number of pmoles of chloride ions removed from PCE and subsequently from the amounts of the daughter products generated. The calculation may be performed as follows: Chloride (μmoles)=[…]−4×PCE (μmoles)−3×TCE (pmoles)−2×DCE (μmoles)−VC (μmoles)\nThe alternative chloride calculation is: Chloride (μmoles)=TCE (μmoles)+2×DCE (μmoles)+3×VC (μmoles)+4×Ethene (μmoles)\nNext, the dechlorination rate may be determined for each bottle at each time by dividing the Chloride generated by the time (days). The data may be then normalized to the lactate control by taking the ratio of Chloride Rate (pmoles/day) and the Lactate Control Chloride Rate (pmoles/day). This ratio is called Relative Rate and is dimensionless.\nAs shown in the Examples, a paired t-test has been conducted to calculate the probability that the Relative Rate of one group (i.e. with Nutrient) is greater than the other group (i.e. without Nutrient). The null hypothesis is that the underlying means of the two paired groups are equal. The Probability that one group has higher Relative Rates than the other group is shown in various tables in the Examples.\nas §2, with “ethene. […]” for “ethene.”"}}, "note": "Where “and” joins values, the source holds several entries; their conditions need not be identical. Equal entries are not always repeated."}
{"compound": "O=C([O-])CC(O)(CC(=O)[O-])C(=O)[O-].[Na+].[Na+].[Na+]", "note": "[Sodium Citrate]", "values": [{"measurement": "ability to dechlorinate PCE (in words)", "setting": "[1]", "value": "ability to completely dechlorinate PCE"}, {"measurement": "dechlorination speed compared to Lactate Control / other amendments (in words)", "setting": "[1]", "value": "almost as fast"}, {"measurement": "efficient as the Lactate Control (Relative Efficiency)", "setting": "[1]; electron donor nominally 1,000 mg/L vs lactate 7 mM", "value": 84, "unit": "%"}]}
{"compound": "O=C([O-])[C@H](O)[C@@H](O)[C@H](O)[C@H](O)CO.[Na+]", "note": "[Na-Gluconate, Sodium Gluconate]", "values": [{"measurement": "Ethene generation (in words)", "setting": "[2]", "value": "starting to generate Ethene"}]}
{"compound": "inulin [PS1]", "values": [{"measurement": "Estimated % Efficiency", "setting": "[3]; e^- used dechlorination / e^- used donor", "value": 0.283, "unit": "%"}, {"measurement": "Relative Efficiency", "setting": "[3]; relative to Lactate Control = 100%", "value": 5, "unit": "%"}, {"measurement": "Relative Rate", "setting": "[4]; time 35 days", "value": "0.03 and 0.04 and 0.05"}, {"measurement": "Relative Rate", "setting": "[4]; time 50 days", "value": "0.02 and 0.01 (2×)"}, {"measurement": "Relative Rate", "setting": "[4]; time 79 days", "value": "0.03 and 0.04 and 0.02"}, {"measurement": "Relative Rate", "setting": "[4]; time 138 days", "value": 0.00}]}
{"compound": "O=C1O[C@H]([C@H](O)CO)C([O-])=C1O.[Na+]", "note": "[Na-Erythorbate, Sodium Erythorbate]", "values": [{"measurement": "Ethene generation (in words)", "setting": "[2]", "value": "starting to generate Ethene"}]}
